Values joined by “and” are separate entries in the source; they are usually repeats but may differ in a detail not shown here. Equal values may be shown once.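 Interpolation was linear, between the two tested concentrations surrounding the appropriate level; five concentrations were tested over 48 hours in 96-well plates. Abbreviation: GI50, concentration required for 50% inhibition of growth. The concentration for full growth arrest is given as TGI.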
Key:
Test in all cases: NCI-60 cell line screen, 48 h
OVCAR-3 ovarian = system: OVCAR-3 ovarian
HCT-116 colon = system: HCT-116 colon
LOX IMVI melanoma = system: LOX IMVI melanoma
SN12C renal = system: SN12C renal
RXF 393 renal = system: RXF 393 renal
NCI/ADR-RES ovarian = system: NCI/ADR-RES ovarian
SK-OV-3 ovarian = system: SK-OV-3 ovarian

Row | Compound | GI50 (OVCAR-3 ovarian) [µM] | TGI (OVCAR-3 ovarian) | GI50 (HCT-116 colon) [µM] | TGI (HCT-116 colon) [µM] | GI50 (LOX IMVI melanoma) [µM] | TGI (LOX IMVI melanoma) | GI50 (SN12C renal) [µM] | TGI (SN12C renal) | GI50 (RXF 393 renal) [µM] | TGI (RXF 393 renal) [µM] | GI50 (NCI/ADR-RES ovarian) [µM] | TGI (NCI/ADR-RES ovarian) [µM] | GI50 (SK-OV-3 ovarian) [µM] | TGI (SK-OV-3 ovarian) [µM]
1 | Nc1nc(/C=C\c2ccccc2)nc(N2CCN(c3ccccc3)CC2)n1 | 28.2 | 57.5 µM | 13.5 | 31.7 | 19 | 40.6 µM | 18.2 | 38.6 µM | 21.6 | 49.2 | 25.5 | 93.3 |  | 
2 | Cc1cc(-c2cc(O)ccc2Cl)cc2nnc(Nc3ccc(OCCN4CCCC4)cc3)nc12 | 1.59 | 3.12 µM | 0.18 | 0.341 | 1.57 | 3.25 µM | 1.47 | 3.03 µM | 1.2 | 2.61 | 0.682 | 1.61 | 1.3 | 2.8
3 | NS(=O)(=O)c1cc(C(=O)O)c(O)c2ccccc12 |  | > 100 µM |  | > 100 |  | > 100 µM |  | > 100 µM |  | > 100 |  | > 100 |  | > 100
4 | CC(=O)NNc1nc(C)c(C(/C=C/c2ccccc2O)=N/N=C(N)N)s1 |  | > 100 µM |  | > 100 |  | > 100 µM |  | > 100 µM |  | > 100 |  | > 100 |  | > 100
5 | C=CCC(N[C@H](CO)c1ccccc1)c1cn(Cc2ccccc2Cl)c(=O)n(Cc2ccccc2Cl)c1=O (stereo not given in full) | 8.8 | 43.8 µM | 6.44 | 20.8 | 6.27 | 19 µM | 14.6 | 40.9 µM | 8.48 | 23.6 | 9.26 | > 100 | 63.8 | > 100
6 | CC(C)COc1nc2c(c(=O)n(C)c(=O)n2C)n1C | > 100 | > 100 µM | > 100 | > 100 | > 100 | > 100 µM | > 100 | > 100 µM | > 100 | > 100 | > 100 | > 100 | > 100 | > 100
7 | CC1(C)CCCC(C)(C2CCC3(C)C2C(O)CC2C4(C)CCC(O)C(C)(C)C4CCC23C)O1 (stereo not given) |  |  |  | > 100 |  | > 100 µM |  | > 100 µM |  | 30.9 |  | > 100 |  | > 100
8 | COC(=O)c1oc2c(C(=O)/C=C/c3ccc(OC)cc3)c(OCCN(C)C)ccc2c1C | 7.19 | 21.3 µM | 4.64 | 19.7 | 4.52 | 17 µM | 5.31 | 20.4 µM | 3.91 | 14.6 | 10.3 | 28 | 5.14 | 17.8
9 | CCCCCC/C=C\CCCCCCCCCC1=C(CN2CCN(C)CC2)C(=O)C=C(OC)C1=O |  | 17.3 µM |  | 4.41 |  | 9.79 µM |  | 19.7 µM |  | 6.72 |  | 11.5 |  | 25.9
10 | Clc1ccccc1-c1nnc2c(Cc3ccccc3)nc3ccccc3n12 | 22.8 | > 100 µM | 3.79 | > 100 | 3.5 | > 100 µM | > 100 | > 100 µM | 3.29 | > 100 | 12.7 | > 100 | 22.5 | > 100
11 | CC(=O)C1=C(O)C=C2Oc3c(C(=O)/C=C/c4cc(Cl)cc(Cl)c4)c(O)c(C)c(O)c3[C@]2(C)C1=O | 0.417 | 1.23 µM | 0.465 | 1.38 | 0.512 | 1.79 µM | 0.534 | 2.45 µM | 0.541 | 1.62 | 0.537 | 1.96 | 0.449 | 1.33
12 | CCN(CC)CCCC(C)N/C(=C1\C(=O)NC(=O)\C1=C(/NC(C)CCCN(CC)CC)c1cccc(OC)c1)c1cccc(OC)c1 (stereo not given) | 1.12 | 3.2 µM | 0.45 | 3.24 | 0.676 | 1.49 µM | 1.27 | 7.03 µM | 0.72 | 1.58 | 1.36 | 5.04 | 1.31 | 3.92
13 | CCCCCCCCCC[C@H](O)[C@H](O)CC[C@@H](O)[C@H]1CC[C@@H]([C@H]2CC[C@H](CCCCCCC[C@@H](O)CC3=C[C@H](C)OC3=O)O2)O1 | 11.8 | 3.42 µM and 30.9 µM | 0.966 | 61.6 | 2.9 | 3.5 µM and 24.2 µM | 25.3 | 74.8 µM | 42.5 | 83 | 18.2 | > 100 |  | 
14 | Oc1c(Cl)cc(Cl)c2ccc(Cn3cc(-c4ccc(C(F)(F)F)cc4)nn3)nc12 | 1.33 | 2.74 µM | 0.692 | 2.57 | 0.299 | 1.11 µM | 2.91 | 11.6 µM | 0.402 | 1.79 | 19 | 64.2 | 17.7 | 33
15 | COc1ccc(/C=C2/SC(Nc3nc(-c4nc(NC5=NC(=O)/C(=C\c6ccc(OC)cc6)S5)sc4C)c(C)s3)=NC2=O)cc1 | 0.188 | 3.25 µM | 1.2 | 9.78 | 0.935 | 9.27 µM | 1.96 | 9.19 µM | 1.53 | 7.23 | 0.648 | 4.39 |  | 
16 | CCCCCCCCCCCCOC1C(CNC(=O)C2OC3OC(C)(C)OC3C2NC(=O)CN2CCN(c3ccc(OC)cc3)CC2)OC2OC(C)(C)OC21 (stereo not given) | 4.01 | 14.5 µM | 3.26 | 18.5 | 3.71 | 12.3 µM | 3.41 | 11.7 µM | 2.1 | 4.44 | 4.03 | 16.1 | 5.87 | 17.7
17 | O=[N+]([O-])c1cc([N+](=O)[O-])c(Nn2c3ccccc3c3ccccc32)c([N+](=O)[O-])c1 | 0.352 | > 33.5 µM | 0.302 | 1.18 | 0.339 | 11.7 µM | 0.322 | 9.42 µM and 6.72 µM | 0.272 | 1.24 | 0.317 | > 100 |  | 
18 | CCN(Cc1cccc(Cl)c1)c1ccc(CO)c(Cl)c1 | 0.835 | 5.29 µM | 0.105 | 10.3 | 9.11 | 22.3 µM | 11.9 | 27.3 µM | 4.67 | 19.8 | 10.8 | 23.8 | 5.62 | 18.2

— PubChem BioAssay (NCI)
